According to patent publication US7074789B2, “Kinase inhibitors” (Amgen Inc., priority 1999, dated 2006):

Assays:
Assay type in all cases: biochemical
[1] = biological target: T1, Lck (Homo sapiens, UniProt P06239); assay: Kinase inhibition assay (33P transfer), Lck; settings: Table 3; read-out: Lck-1
T1 construct: Kinases are expressed as either kinase domains or full length constructs; made in house
Procedure, shortened: (§1)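 Kinase domain or full-length constructs, GST- or polyHis-tagged, expressed in E. coli or baculovirus-High Five cells, sometimes with regulatory polypeptides. Activity measured as 33PO4 transfer from ATP to plate-bound poly(Glu,Tyr) 4:1 or poly(Arg,Ser) 3:1; after incubation, plates washed with 0.5% phosphoric acid and counted by liquid scintillation.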

[2] = biological target: T2, Fyn (Homo sapiens, UniProt P06241); assay: Kinase inhibition assay (33P transfer), Fyn; settings: read-out: Fyn-1
T2 construct: Kinases are expressed as either kinase domains or full length constructs; made in house
Procedure, shortened: (§2)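 GST/His-fusion kinases, E. coli or High Five expressed, affinity purified; 33P-ATP, plate-coated poly(Glu,Tyr) 4:1 or poly(Arg,Ser) 3:1; 0.5% H3PO4 wash, scintillant, LSC.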

[3] = biological target: T3, Itk (Homo sapiens, UniProt Q08881); assay: Kinase inhibition assay (33P transfer), Itk; settings: Table 3; read-out: Itk-1
T3 construct: Kinases are expressed as either kinase domains or full length constructs; made in house
T3 sequence (Q08881 1-620): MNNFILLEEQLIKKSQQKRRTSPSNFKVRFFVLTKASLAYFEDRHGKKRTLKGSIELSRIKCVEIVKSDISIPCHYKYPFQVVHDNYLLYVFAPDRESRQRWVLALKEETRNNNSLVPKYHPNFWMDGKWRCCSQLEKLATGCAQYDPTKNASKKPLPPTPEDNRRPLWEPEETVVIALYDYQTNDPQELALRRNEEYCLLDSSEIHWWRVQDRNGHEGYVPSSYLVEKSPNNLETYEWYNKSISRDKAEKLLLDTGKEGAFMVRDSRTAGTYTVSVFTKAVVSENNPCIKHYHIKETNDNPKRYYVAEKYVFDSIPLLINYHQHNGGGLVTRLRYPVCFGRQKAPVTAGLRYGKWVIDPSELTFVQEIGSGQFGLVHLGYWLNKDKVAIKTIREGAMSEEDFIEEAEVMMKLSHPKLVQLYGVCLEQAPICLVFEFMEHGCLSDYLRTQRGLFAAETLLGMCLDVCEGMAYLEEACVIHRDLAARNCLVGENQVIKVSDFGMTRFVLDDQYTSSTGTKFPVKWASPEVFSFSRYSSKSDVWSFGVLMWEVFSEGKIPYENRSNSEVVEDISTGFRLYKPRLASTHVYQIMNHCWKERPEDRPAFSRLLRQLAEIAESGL
Procedure, shortened: as §2

[4] = biological target: T4, EGFR (Homo sapiens, UniProt P00533); assay: Kinase inhibition assay (33P transfer), EGFR; settings: Table 2, kinase inhibition class; read-out: EGFR-1
T4 construct: Kinases are expressed as either kinase domains or full length constructs; made in house
Procedure, shortened: as §2

[5] = biological target: T5, Tek (Homo sapiens, UniProt Q02763); assay: Kinase inhibition assay (33P transfer), Tek; settings: read-out: Tek-1
T5 construct: Kinases are expressed as either kinase domains or full length constructs; made in house
T5 sequence (Q02763 23-1124, species assumed): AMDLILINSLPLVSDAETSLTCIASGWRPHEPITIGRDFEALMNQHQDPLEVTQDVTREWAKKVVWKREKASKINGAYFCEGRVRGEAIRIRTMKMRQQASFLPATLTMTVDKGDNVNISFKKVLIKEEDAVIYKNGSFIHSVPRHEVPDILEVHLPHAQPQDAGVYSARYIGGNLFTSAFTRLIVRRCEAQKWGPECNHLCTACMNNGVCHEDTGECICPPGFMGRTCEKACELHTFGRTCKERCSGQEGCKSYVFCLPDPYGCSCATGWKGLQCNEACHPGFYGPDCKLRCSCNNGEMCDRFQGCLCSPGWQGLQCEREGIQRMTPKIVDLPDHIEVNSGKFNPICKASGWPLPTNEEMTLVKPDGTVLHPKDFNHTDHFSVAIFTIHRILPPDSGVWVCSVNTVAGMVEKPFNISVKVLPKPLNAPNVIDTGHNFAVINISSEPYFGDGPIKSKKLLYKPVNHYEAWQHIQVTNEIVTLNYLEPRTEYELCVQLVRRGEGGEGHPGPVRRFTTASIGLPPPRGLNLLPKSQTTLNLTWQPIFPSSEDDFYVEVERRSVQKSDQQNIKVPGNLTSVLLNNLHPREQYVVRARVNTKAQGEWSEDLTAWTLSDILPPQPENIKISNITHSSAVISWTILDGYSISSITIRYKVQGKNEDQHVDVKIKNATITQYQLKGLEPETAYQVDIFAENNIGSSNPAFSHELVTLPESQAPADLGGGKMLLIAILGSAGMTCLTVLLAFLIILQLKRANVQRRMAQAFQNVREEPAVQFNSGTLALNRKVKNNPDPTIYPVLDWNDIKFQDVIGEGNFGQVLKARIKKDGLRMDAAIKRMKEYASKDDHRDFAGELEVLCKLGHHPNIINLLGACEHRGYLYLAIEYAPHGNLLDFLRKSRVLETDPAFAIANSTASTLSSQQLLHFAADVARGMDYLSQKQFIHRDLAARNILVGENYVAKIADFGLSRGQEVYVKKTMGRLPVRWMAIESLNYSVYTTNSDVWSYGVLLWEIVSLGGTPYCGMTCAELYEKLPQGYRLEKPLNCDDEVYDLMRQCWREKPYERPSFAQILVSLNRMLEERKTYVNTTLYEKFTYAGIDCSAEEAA
Procedure, shortened: as §2

[6] = biological target: T6, c-Met (Homo sapiens, UniProt P08581); assay: Kinase inhibition assay (33P transfer), c-Met; settings: Table 2, kinase inhibition class; read-out: Met-1
T6 construct: Kinases are expressed as either kinase domains or full length constructs; made in house
T6 sequence (P08581 25-1390): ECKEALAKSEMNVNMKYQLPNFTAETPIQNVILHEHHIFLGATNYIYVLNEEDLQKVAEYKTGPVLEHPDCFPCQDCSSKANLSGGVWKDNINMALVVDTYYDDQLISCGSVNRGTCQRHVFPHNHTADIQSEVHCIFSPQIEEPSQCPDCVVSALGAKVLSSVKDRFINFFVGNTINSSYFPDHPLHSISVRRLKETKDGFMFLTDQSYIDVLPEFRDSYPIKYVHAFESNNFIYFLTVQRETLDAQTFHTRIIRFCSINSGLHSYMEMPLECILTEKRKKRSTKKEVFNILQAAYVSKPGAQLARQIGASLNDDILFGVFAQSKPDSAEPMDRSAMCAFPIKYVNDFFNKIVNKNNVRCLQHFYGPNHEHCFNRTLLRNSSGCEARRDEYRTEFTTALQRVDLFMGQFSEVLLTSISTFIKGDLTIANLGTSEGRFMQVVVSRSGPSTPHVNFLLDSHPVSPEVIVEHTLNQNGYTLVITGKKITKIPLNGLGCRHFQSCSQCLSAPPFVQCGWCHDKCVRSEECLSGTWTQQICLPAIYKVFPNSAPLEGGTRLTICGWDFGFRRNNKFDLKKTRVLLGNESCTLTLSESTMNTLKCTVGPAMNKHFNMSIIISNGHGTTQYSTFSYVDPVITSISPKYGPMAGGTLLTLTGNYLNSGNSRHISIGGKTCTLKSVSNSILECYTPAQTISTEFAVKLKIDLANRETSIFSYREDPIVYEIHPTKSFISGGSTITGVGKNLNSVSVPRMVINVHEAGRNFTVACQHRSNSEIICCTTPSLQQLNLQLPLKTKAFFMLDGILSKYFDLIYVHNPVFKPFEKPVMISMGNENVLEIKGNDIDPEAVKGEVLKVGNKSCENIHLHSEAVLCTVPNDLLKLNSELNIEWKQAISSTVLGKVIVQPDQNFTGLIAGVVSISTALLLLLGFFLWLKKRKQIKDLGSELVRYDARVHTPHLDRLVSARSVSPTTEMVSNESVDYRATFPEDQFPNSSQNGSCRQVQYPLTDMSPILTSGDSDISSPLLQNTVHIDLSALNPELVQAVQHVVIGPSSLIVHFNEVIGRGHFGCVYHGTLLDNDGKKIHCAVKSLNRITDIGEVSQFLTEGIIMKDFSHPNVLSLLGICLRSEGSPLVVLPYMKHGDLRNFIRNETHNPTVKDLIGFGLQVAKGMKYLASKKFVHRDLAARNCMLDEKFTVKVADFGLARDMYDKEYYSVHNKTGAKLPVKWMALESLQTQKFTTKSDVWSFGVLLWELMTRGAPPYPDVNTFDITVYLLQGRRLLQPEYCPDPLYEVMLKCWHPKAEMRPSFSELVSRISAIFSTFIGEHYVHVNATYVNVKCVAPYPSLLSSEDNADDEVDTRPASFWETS
Procedure, shortened: as §2

[7] = biological target: T7, AKT (Homo sapiens, UniProt Q9Y243); assay: Kinase inhibition assay (33P transfer), AKT; settings: Table 2, kinase inhibition class; read-out: AKT3-1
T7 construct: Kinases are expressed as either kinase domains or full length constructs; made in house
T7 sequence (Q9Y243 whole entry, the tested form may be a part): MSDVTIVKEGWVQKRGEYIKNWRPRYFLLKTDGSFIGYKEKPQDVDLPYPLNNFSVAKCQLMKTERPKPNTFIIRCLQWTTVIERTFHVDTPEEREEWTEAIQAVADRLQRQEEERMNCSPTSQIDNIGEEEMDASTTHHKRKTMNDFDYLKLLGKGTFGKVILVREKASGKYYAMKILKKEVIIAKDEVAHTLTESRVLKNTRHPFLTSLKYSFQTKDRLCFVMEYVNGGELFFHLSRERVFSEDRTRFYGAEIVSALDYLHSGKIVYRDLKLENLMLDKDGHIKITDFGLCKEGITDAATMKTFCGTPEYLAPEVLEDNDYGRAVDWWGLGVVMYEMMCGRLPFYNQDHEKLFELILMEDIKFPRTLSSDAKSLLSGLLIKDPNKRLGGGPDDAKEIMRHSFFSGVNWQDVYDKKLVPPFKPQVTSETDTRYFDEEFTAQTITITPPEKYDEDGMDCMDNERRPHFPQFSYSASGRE
Procedure, shortened: as §1

[8] = biological target: T8, IGFR-1 (Homo sapiens, UniProt P08069); assay: Kinase inhibition assay (33P transfer), IGFR-1; settings: Table 2, kinase inhibition class
T8 construct: Kinases are expressed as either kinase domains or full length constructs; made in house
T8 sequence (P08069 31-1367): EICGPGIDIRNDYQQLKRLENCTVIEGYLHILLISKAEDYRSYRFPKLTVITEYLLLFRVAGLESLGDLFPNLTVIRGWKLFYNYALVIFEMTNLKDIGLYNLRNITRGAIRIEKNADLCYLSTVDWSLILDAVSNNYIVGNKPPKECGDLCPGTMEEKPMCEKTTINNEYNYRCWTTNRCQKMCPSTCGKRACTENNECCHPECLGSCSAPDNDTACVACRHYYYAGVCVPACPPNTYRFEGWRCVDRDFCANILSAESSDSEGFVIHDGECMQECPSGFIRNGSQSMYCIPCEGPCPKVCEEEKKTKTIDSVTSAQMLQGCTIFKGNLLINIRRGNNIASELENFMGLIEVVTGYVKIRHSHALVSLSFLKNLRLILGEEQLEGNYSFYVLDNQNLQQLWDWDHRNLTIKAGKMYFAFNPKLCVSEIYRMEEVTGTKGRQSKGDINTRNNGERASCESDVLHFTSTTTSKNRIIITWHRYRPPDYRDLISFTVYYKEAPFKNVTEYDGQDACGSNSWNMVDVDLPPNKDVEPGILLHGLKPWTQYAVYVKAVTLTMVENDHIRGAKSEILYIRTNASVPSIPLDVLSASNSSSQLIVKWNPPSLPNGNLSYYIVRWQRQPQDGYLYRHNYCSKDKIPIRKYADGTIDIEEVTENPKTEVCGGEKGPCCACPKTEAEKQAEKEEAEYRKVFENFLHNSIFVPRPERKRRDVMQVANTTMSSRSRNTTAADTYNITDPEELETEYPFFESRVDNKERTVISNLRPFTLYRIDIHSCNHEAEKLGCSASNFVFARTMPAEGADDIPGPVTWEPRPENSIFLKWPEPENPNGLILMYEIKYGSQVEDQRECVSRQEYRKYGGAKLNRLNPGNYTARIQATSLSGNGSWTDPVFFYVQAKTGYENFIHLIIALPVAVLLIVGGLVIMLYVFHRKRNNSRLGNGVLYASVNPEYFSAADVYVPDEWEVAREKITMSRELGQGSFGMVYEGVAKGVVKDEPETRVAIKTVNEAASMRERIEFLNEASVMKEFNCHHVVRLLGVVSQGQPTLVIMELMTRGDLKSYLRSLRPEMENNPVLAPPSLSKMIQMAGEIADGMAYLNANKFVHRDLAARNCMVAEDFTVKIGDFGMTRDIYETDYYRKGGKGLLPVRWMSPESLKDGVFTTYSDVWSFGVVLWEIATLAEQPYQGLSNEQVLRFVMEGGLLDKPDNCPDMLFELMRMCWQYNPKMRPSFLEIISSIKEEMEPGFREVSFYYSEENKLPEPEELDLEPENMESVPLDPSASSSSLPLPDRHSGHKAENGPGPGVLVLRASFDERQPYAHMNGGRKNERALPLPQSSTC

[9] = biological target: T9, PDGFRB (Homo sapiens, UniProt P09619); assay: Kinase inhibition assay (33P transfer), PDGFRB; settings: read-out: PDGFRB-1
T9 construct: Kinases are expressed as either kinase domains or full length constructs; made in house

[10] = biological target: T10, FGFR1 (Homo sapiens, UniProt P11362); assay: Kinase inhibition assay (33P transfer), FGFR1; settings: read-out: FGFR1-1
T10 construct: Kinases are expressed as either kinase domains or full length constructs; made in house
T10 sequence (P11362 22-822, species assumed): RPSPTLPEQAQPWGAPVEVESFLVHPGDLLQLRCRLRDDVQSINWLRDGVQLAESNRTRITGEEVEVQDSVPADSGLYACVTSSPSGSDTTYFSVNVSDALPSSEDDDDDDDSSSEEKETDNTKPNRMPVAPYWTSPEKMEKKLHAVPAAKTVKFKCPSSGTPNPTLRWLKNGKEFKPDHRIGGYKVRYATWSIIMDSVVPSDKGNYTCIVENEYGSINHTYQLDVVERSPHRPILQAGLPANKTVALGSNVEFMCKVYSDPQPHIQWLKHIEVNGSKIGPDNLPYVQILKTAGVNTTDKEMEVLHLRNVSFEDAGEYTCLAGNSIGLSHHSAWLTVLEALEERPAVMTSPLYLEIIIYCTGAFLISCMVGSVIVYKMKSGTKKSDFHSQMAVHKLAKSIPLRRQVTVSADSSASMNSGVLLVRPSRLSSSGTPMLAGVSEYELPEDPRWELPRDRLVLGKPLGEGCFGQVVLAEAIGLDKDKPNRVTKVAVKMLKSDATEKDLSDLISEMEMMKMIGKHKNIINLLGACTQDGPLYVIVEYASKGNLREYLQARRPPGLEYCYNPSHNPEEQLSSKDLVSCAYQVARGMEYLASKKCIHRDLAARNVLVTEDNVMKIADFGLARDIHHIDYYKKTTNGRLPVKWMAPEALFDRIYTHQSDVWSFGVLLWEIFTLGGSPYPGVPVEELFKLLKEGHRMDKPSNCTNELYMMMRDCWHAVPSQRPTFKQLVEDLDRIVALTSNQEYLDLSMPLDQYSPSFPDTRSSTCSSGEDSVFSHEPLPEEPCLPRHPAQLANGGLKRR

| SMILES | IC50 [1] [µM] | IC50 [2] [µM] | IC50 [3] [µM] | IC50 [4] [µM] | IC50 [5] [µM] | IC50 [6] [µM] | IC50 [7] [µM] | IC50 [8] [µM] | IC50 [9] [µM] | IC50 [10] [µM] |
| --- | --- | --- | --- | --- | --- | --- | --- | --- | --- | --- |
| NC(=O)c1cccc(Nc2ncnc(-n3c(N)nc4ccccc43)n2)c1 [Compound 395] | 6.93 to 10.1 | 6.93 to 10.1 | 1.15 to 6.93 | > 13 | 1.15 to 6.93 | 1.15 to 6.93 | 10.1 to 13 | 1.15 to 6.93 | 1.15 to 6.93 | < 1.15 |
| COc1cc(Nc2ncnc(Nc3cccc(C)c3)n2)cc(OC)c1OC [Compound 64] | 1.09 to 6.53 | 1.09 to 6.53 | > 12.2 | < 1.09 | > 12.2 | 6.53 to 9.53 | > 12.2 | < 1.09 | 9.53 to 12.2 | > 12.2 |
| COc1cc(Nc2ncnc(-n3c(Nc4ccc(C)cc4)nc4ccccc43)n2)cc(OC)c1OC [Compound 385] | 0.827 to 4.96 | > 9.31 | > 9.31 | > 9.31 | > 9.31 | > 9.31 | > 9.31 | > 9.31 | < 0.827 | < 0.827 |
| COc1cc(Nc2ncnc(Nc3ccc4ccccc4c3)n2)cc(OC)c1OC [Compound 96] | 0.991 to 5.95 | 8.68 to 11.2 | > 11.2 | 0.991 to 5.95 | > 11.2 | > 11.2 | > 11.2 | – | 0.991 to 5.95 | > 11.2 |
| COc1cc(Nc2ncnc(Nc3cccc(O)c3)n2)cc(OC)c1OC [Compound 78] | 1.08 to 6.5 | < 1.08 | 1.08 to 6.5 | < 1.08 | > 12.2 | > 12.2 | > 12.2 | 1.08 to 6.5 | < 1.08 | < 1.08 |
| COc1cc(Nc2ncnc(Nc3ccccc3F)n2)cc(OC)c1OC [Compound 65] | 9.42 to 12.1 | > 12.1 | > 12.1 | < 1.08 | > 12.1 | > 12.1 | > 12.1 | 1.08 to 6.46 | < 1.08 | > 12.1 |
| COc1ccccc1Nc1ncnc(Nc2cc(OC)c(OC)c(OC)c2)n1 [Compound 90] | 1.04 to 6.26 | < 1.04 | 9.13 to 11.7 | 1.04 to 6.26 | > 11.7 | > 11.7 | > 11.7 | 1.04 to 6.26 | < 1.04 | 1.04 to 6.26 |
| COc1cc(Nc2ncnc(Nc3ccc(Br)cc3)n2)cc(OC)c1OC [Compound 82] | 0.925 to 5.55 | – | > 10.4 | 0.925 to 5.55 | > 10.4 | > 10.4 | > 10.4 | 0.925 to 5.55 | < 0.925 | 0.925 to 5.55 |
| COc1cc(Nc2ncnc(Nc3cc(OC)c(OC)c(OC)c3)n2)cc(OC)c1OC [Compound 76] | 0.902 to 5.41 | 0.902 to 5.41 | > 10.1 | 7.89 to 10.1 | > 10.1 | > 10.1 | > 10.1 | 0.902 to 5.41 | – | – |
| COc1cc(Nc2ncnc(Nc3cc(-c4ccco4)n[nH]3)n2)cc(OC)c1 [Compound 365] | 1.05 to 6.33 | 1.05 to 6.33 | 1.05 to 6.33 | 1.05 to 6.33 | > 11.9 | < 1.05 | 6.33 to 9.23 | < 1.05 | 6.33 to 9.23 | 1.05 to 6.33 |
| COc1cc(Nc2ncnc(Nc3ccc(F)c(Cl)c3)n2)cc(OC)c1OC [Compound 61] | < 0.986 | < 0.986 | > 11.1 | < 0.986 | – | > 11.1 | > 11.1 | < 0.986 | < 0.986 | > 11.1 |
| COc1cc(Nc2ncnc(Nc3ccc(C(N)=O)cc3)n2)cc(OC)c1OC [Compound 33] | 8.83 to 11.4 | 6.05 to 8.83 | > 11.4 | > 11.4 | > 11.4 | > 11.4 | > 11.4 | < 1.01 | 8.83 to 11.4 | 6.05 to 8.83 |
| COc1cc(Nc2ncnc(Nc3ccc(Cl)cc3)n2)cc(OC)c1OC [Compound 72] | 1.03 to 6.19 | – | > 11.6 | 1.03 to 6.19 | > 11.6 | 9.02 to 11.6 | > 11.6 | < 1.03 | < 1.03 | < 1.03 |
| COc1cc(Nc2ncnc(-n3c(Nc4cccc(C(=O)O)c4)nc4ccccc43)n2)cc(OC)c1OC [Compound 390] | < 0.779 | 0.779 to 4.67 | > 8.76 | 6.82 to 8.76 | 4.67 to 6.82 | 6.82 to 8.76 | 0.779 to 4.67 | > 8.76 | 0.779 to 4.67 | 4.67 to 6.82 |
| COc1cc(Nc2ncnc(Nc3ccc(N(C)C)cc3)n2)cc(OC)c1OC [Compound 27] | 1.01 to 6.05 | 1.01 to 6.05 | > 11.4 | 6.05 to 8.83 | – | 8.83 to 11.4 | > 11.4 | < 1.01 | > 11.4 | 1.01 to 6.05 |
| COc1cc(Nc2ncnc(Nc3cc(C)[nH]n3)n2)cc(OC)c1OC [Compound 88] | 1.12 to 6.72 | 1.12 to 6.72 | 1.12 to 6.72 | 9.79 to 12.6 | > 12.6 | 1.12 to 6.72 | > 12.6 | 1.12 to 6.72 | – | – |
| COc1cc(Nc2ncnc(Nc3cnc4ccccc4c3)n2)cc(OC)c1OC [Compound 99] | 0.989 to 5.93 | 0.989 to 5.93 | > 11.1 | 0.989 to 5.93 | > 11.1 | 8.65 to 11.1 | > 11.1 | – | 0.989 to 5.93 | 0.989 to 5.93 |
| COc1cc(Nc2ncnc(NC(=O)Nc3ccccc3)n2)cc(OC)c1OC [Compound 852] | > 11.4 | > 11.4 | > 11.4 | > 11.4 | – | 6.05 to 8.83 | > 11.4 | < 1.01 | 8.83 to 11.4 | > 11.4 |
| COc1cc(Nc2ncnc(Nc3ccc(N4CCOCC4)cc3)n2)cc(OC)c1OC [Compound 101] | 5.47 to 7.98 | 0.912 to 5.47 | > 10.3 | > 10.3 | 7.98 to 10.3 | > 10.3 | > 10.3 | > 10.3 | – | – |
| C#Cc1cccc(Nc2ncnc(Nc3cc(OC)c(OC)c(OC)c3)n2)c1 [Compound 74] | 1.06 to 6.36 | > 11.9 | > 11.9 | < 1.06 | > 11.9 | 9.27 to 11.9 | > 11.9 | < 1.06 | – | – |
| COC(=O)c1cccc(Nc2nc3ccccc3n2-c2ncnc(Nc3cc(OC)c(OC)c(OC)c3)n2)c1 [Compound 383] | 4.55 to 6.63 | – | 4.55 to 6.63 | > 8.53 | 4.55 to 6.63 | > 8.53 | > 8.53 | > 8.53 | – | – |
| COc1cccc(-c2ncnc(Nc3cc(OC)c(OC)c(OC)c3)n2)c1 [Compound 232] | 1.09 to 6.51 | > 12.2 | > 12.2 | 6.51 to 9.5 | > 12.2 | > 12.2 | > 12.2 | > 12.2 | – | – |
| COc1cc(Nc2ncnc(Nc3ccc4c(c3)Cc3ccccc3-4)n2)cc(OC)c1OC [Compound 95] | 0.906 to 5.44 | 0.906 to 5.44 | > 10.2 | > 10.2 | > 10.2 | > 10.2 | > 10.2 | 0.906 to 5.44 | – | – |
